From patent US20230364057A1, “BACTERIAL DNA GYRASE INHIBITORS AND METHODS OF USE THEREOF” (THE FLORIDA INTERNATIONAL UNIVERSITY BOARD OF TRUSTEES, priority 2022, published 2023)
pIC50: −log10 of the molar value. Values after ≈ are worked out from the molar mass of the structure shown.

Columns and labels:
[1] = target: T1, E. coli DNA gyrase (Escherichia coli (strain K12), UniProt P0AES4+P0AES6); assay: Agarose gel-based DNA gyrase inhibition assay; assay type: biochemical
Experimental: 100 ng of DNA gyrase was used to supercoil the rx pAB1 in the presence of different concentrations of a gyrase inhibitor. […] Samples were analyzed by electrophoresis in 1% w/v agarose gels followed by ethidium bromide staining and photographed under UV light.

[2] = target: T1, E. coli DNA gyrase; assay: biochemical; assay type: biochemical; settings: for IC50: IC50 (15-[…] µM)
[3] = test system: B. subtilis (ATCC 6633); assay: Minimum inhibitory concentration, broth microdilution; settings: Bacillus subtilis, ATCC6633, read-out: Minimum Inhibitory Concentration B.subtilis
Experimental: Antibacterial minimum inhibitory concentrations (MICs) were obtained from three independent experiments using broth microdilution methods in 96-well plates according to Clinical and Laboratory Standards Institute guidelines. Cells were culture from singles colonies in MHIIB medium for 24 h at 37° C. in agitation (200 RPM). The cultures were then diluted using the same media to reach an OD600 of 0.1. Then, 50 µL of the diluted cultures were added to the plates holding 50 µL of serially diluted compounds in MHIIB. The plates were incubated at 37° C. for 20 h. The starting inoculum was fixated to 10^5 colony-forming units per ml.

[4] = test system: MRSA; assay: as above; settings: Staphylococcus aureus, MRSA, read-out: Minimum Inhibitory Concentration S.aureus MRSA
[5] = test system: S. aureus (ATCC 14775); assay: as above; settings: Staphylococcus aureus, ATCC14775, read-out: Minimum Inhibitory Concentration S.aureus
[6] = IC50 ([…]-50 µM), bin of Table 2
[7] = IC50 (50-200 µM), bin of Table 2
[8] = IC50 against E. coli DNA gyrase

Row | SMILES | inhibition of E. coli DNA gyrase activities ([1]; 50 µM of compounds) | inhibition of E. coli DNA gyrase activities ([1]; 200 µM of compounds) | pIC50 [2, 7] | further results
1 | Cc1cc(/C=C2\SC(=S)N=C2O)c(C)n1-c1cccc(O)c1 [Compound 21] | completely inhibited | completely inhibited |  | pIC50 [2, 6]: 4.30 to 4.60; MIC [3]: 100 µM (≈ 33 µg/mL)
2 | O=C(O)CCCCCN1C(=O)/C(=C\c2ccc(-c3ccc(Cl)cc3)o2)SC1=S [Compound 36] | completely inhibited | completely inhibited |  | MIC [3]: 12.5 µM (≈ 5.45 µg/mL)
3 | O=C(O)CCCN1C(=O)C(=Cc2ccc(-c3nc4ccccc4s3)o2)SC1=S [Compound 41] | completely inhibited | completely inhibited |  | MIC [3]: 6.25 µM (≈ 2.69 µg/mL)
4 | COC(=O)c1c(NC(=O)CC2Nc3ccccc3NC2=O)sc(C)c1C (stereo not shown) [Compound 55] |  | almost completely inhibited | 3.70 to 4.30 | MIC [4]: 25 µM (≈ 9.34 µg/mL)
5 | CCOC(=O)C1=C(Nc2ccc(C)cc2)S/C(=C\c2ccc(-c3ccccc3C(=O)O)o2)C1=O [Compound 60] |  | completely inhibited | 3.70 to 4.30 | 
6 | O=C1/C(=C/c2ccc(O)cc2)SC(=S)N1CC1CCCO1 (stereo not shown) [Compound 61] |  | almost completely inhibited | 3.70 to 4.30 | 
7 | O=C(O)CC(C(=O)O)N1C(=O)/C(=C/c2ccc(-c3nc4ccccc4s3)o2)SC1=S (stereo not shown) [Compound 62] | almost completely inhibited | completely inhibited | 3.70 to 4.30 | 
8 | Cc1cc(/C=C(/C#N)c2nc3ccccc3[nH]2)c(C)n1-c1cc(C(=O)O)cc(C(=O)O)c1 [Compound 63] |  | completely inhibited | 3.70 to 4.30 | 
9 | Cc1cc(C(=O)Nc2ccccc2C(=O)O)ccc1NC(=O)COc1ccccc1Cl [Compound 65] |  | almost completely inhibited | 3.70 to 4.30 | 
10 | CCOC(=O)C1=C(C)NC(=O)NC1c1ccc(N2CCC(c3ccccc3)=N2)cc1 (stereo not shown) [Compound 68] |  | almost completely inhibited | 3.70 to 4.30 | 
11 | Cc1cc(-c2csc(N)n2)c(C)n1-c1ccccc1.Cl [Compound 70] |  | completely inhibited | 3.70 to 4.30 | 
12 | O=C(O)c1cc(O)c2c(c1)C(=O)c1cccc(O)c1C2=O [Compound 82] |  | almost completely inhibited | 3.70 to 4.30 | MIC [5]: 50 µM (≈ 14.2 µg/mL); MIC [3]: 50 µM (≈ 14.2 µg/mL)
13 | O=C(O)C1Nc2ccccc2C2C=CCC12 (stereo not shown) [Compound 83] | almost completely inhibited | completely inhibited | 3.70 to 4.30 | inhibition of E. coli DNA gyrase activities [2]: inhibit E. coli DNA gyrase strongly
14 | c1ccc(Nc2nc(N3CCCC3)c3ccccc3n2)cc1 [Compound 102] | completely inhibited |  |  | pIC50 [2, 6]: 4.30 to 4.60
15 | Cc1cc2c3c(c1)C1CC=CC1C(C(=O)O)N3CC1CC=CC21 (stereo not shown) [Compound 106] | potently inhibited |  | 3.70 to 4.30 | inhibition of E. coli DNA gyrase activities [2]: inhibit E. coli DNA gyrase strongly
16 | CNc1nnc(-c2ccc(C)cc2)c2ccccc12 [Compound 108] | completely inhibited |  |  | IC50 ([2]; bin of Table 2): 15 to 25 µM; MIC [5]: 200 µM (≈ 49.9 µg/mL); MIC [4]: 200 µM (≈ 49.9 µg/mL)
17 | O=C(O)c1ccc(NN=C2c3cc(Br)ccc3NC2O)cc1 (stereo not shown) [Compound 111] | completely inhibited |  |  | MIC [3]: 100 µM (≈ 36.2 µg/mL)
18 | Cc1onc(-c2ccccc2)c1C(=O)Nc1sccc1C#N [Compound 112] | potently inhibited |  | 3.70 to 4.30 | 
19 | O=C(O)c1ccc(/N=N/C2C(O)=Nc3ccc(Cl)cc32)cc1 (stereo not shown) [Compound 126] | completely inhibited |  |  | MIC [5]: 100 µM (≈ 31.6 µg/mL); MIC [4]: 100 µM (≈ 31.6 µg/mL); MIC [3]: 100 µM (≈ 31.6 µg/mL)
20 | C(=Cc1ccco1)c1nc2ccccc2[nH]1 [Compound 129] | potently inhibited |  | 3.70 to 4.30 | 
21 | CCOc1ccc(S(=O)(=O)Nc2nc3ccccc3nc2Nc2ccc(N3CCOCC3)cc2)cc1 [Compound 130] | potently inhibited |  | 3.70 to 4.30 | 
22 | N#CC(C#N)=C1C=CC=CN1C(=Cc1ccccc1)C(=O)c1cccs1 [Compound 131] | potently inhibited |  | 3.70 to 4.30 | 
23 | CCOC(=O)[C@@H]1Nc2ccc(C(=O)O)cc2[C@@H]2C=CC[C@H]12 [Compound 141] | potently inhibited |  |  | inhibition of E. coli DNA gyrase activities [2]: inhibit E. coli DNA gyrase strongly
24 | Cc1cccc(/N=C2/NC(=O)/C(=C\C=C\c3ccco3)S2)c1C [Compound 149] | completely inhibited |  |  | IC50 ([2]; bin of Table 2): 15 to 25 µM

Row | SMILES | inhibition of E. coli DNA gyrase activities ([1]; 50 µM of compounds) | inhibition of E. coli DNA gyrase activities ([1]; 200 µM of compounds) | pIC50 [2, 7] | further results
25 | O=C(O)C(Cc1ccccc1)N1C(=O)/C(=C\C=C\c2ccco2)SC1=S (stereo not shown) [Compound 157] | completely inhibited |  |  | MIC [5]: 200 µM (≈ 77.1 µg/mL); MIC [4]: 200 µM (≈ 77.1 µg/mL); MIC [3]: 200 µM (≈ 77.1 µg/mL)
26 | O=[N+]([O-])c1cc(/C=N/Nc2nc3ccccc3[nH]2)c(O)cc1O [Compound 159] | completely inhibited |  |  | MIC [5]: 50 µM (≈ 15.7 µg/mL); MIC [4]: 100 µM (≈ 31.3 µg/mL); MIC [3]: 200 µM (≈ 62.7 µg/mL)
27 | CN1C(=O)C(=Cc2ccc(Sc3ccccc3)o2)C(=O)N(C)C1=S [Compound 161] | completely inhibited |  |  | IC50 ([2]; bin of Table 2): 15 to 25 µM; MIC [3]: 200 µM (≈ 71.7 µg/mL)
28 | O=C1N/C(=N\c2ccc3ccccc3c2)S/C1=C/c1ccco1 [Compound 163] | completely inhibited |  |  | IC50 ([2]; bin of Table 2): 15 to 25 µM
29 | O=C(/C=C/c1ccco1)Nc1cccc2cccnc12 [Compound 164] |  |  |  | MIC [5]: 200 µM (≈ 52.9 µg/mL); MIC [4]: 200 µM (≈ 52.9 µg/mL)
30 | N#Cc1sc2nc(-c3ccccc3)cc(-c3ccco3)c2c1N [Compound 167] | potently inhibited |  | 3.70 to 4.30 | 
31 | O=C1/C(=C/c2ccc(O)cc2)SC(=S)N1Cc1cccnc1 [Compound 168] | potently inhibited |  | 3.70 to 4.30 | 
32 | Cc1ccc(/N=C2N=C(O)/C(=C/C=C/c3ccco3)S\2)cc1C [Compound 169] | completely inhibited |  |  | IC50 ([2]; bin of Table 2): 15 to 25 µM
33 | Cc1cc(/C=C2/SC(=S)N(c3cccc(Cl)c3)C2=O)c(C)n1-c1cccnc1 [Compound 171] | completely inhibited |  |  | IC50 ([2]; bin of Table 2): 15 to 25 µM
34 | O=C(NN1C(=O)/C(=C\C=C\c2ccco2)SC1=S)c1ccccc1O [Compound 180] | completely inhibited |  |  | IC50 ([2]; bin of Table 2): 15 to 25 µM
35 | O=C1N=C(O)/C(=C/c2ccc(N3CCCC3)cc2)C(=O)N1Cc1ccc(F)cc1 [Compound 184] | potently inhibited |  |  | IC50 ([2]; bin of Table 2): 15 to 25 µM; MIC [5]: 200 µM (≈ 78.7 µg/mL); MIC [4]: 200 µM (≈ 78.7 µg/mL)
36 | COc1cc(C(=O)Nc2scc(-c3ccc(Br)cc3)c2C(=O)O)cc(OC)c1OC [Compound 189] | completely inhibited |  |  | pIC50 [2, 6]: 4.30 to 4.60; MIC [3]: 100 µM (≈ 49.2 µg/mL)
37 | COC(=O)C1C2CC3c4[nH]c5cc(OC)ccc5c4CCN3CC2CC(OC(=O)c2ccc(N)cc2)C1OC (stereo not shown) [Compound 204] |  | potently inhibited | 3.70 to 4.30 | 
38 | O=C1C(Cl)=C(NCCc2ccccc2)C(=O)c2ccccc21 [Compound 205] |  | potently inhibited | 3.70 to 4.30 | 
39 | O=C1c2ccccc2C(=O)c2cc(N3CCCCC3)ccc21 [Compound 206] |  | potently inhibited | 3.70 to 4.30 | 
40 | O=C(Cc1ccccc1)c1ccccn1 [Compound 213] |  | completely inhibited | 3.70 to 4.30 | 
41 | CCN(CCCNc1cc2c(c(N)c1S(=O)(=O)O)C(=O)c1ccccc1C2=O)c1ccccc1 [Compound 215] | completely inhibited | completely inhibited |  | pIC50 [2, 6]: 4.30 to 4.60
42 | Cc1ccc([S+]([O-])c2ccc([N+](=O)[O-])c3nonc23)cc1 (stereo not shown) [Compound 222] | completely inhibited | completely inhibited |  | pIC50 [2, 6]: 4.30 to 4.60
43 | COC1C(C)OC(OC2CC(C)(O)Cc3cc4c(c(O)c32)C(=O)c2c(O)cc3c(c2C4=O)OC2OC3(C)C(O)C(N(C)C)C2O)C(OC)C1(C)OC (stereo not shown) [Compound 224] | completely inhibited | completely inhibited |  | pIC50 [2, 6]: 4.30 to 4.60
44 | CCN1C(=O)C(=CC=CN(C)c2ccccc2)SC1=S [Compound 227] |  | potently inhibited | 3.70 to 4.30 | 
45 | CN(C)c1ccc(C=C2SC(=S)N(Cc3ccco3)C2=O)cc1 [Compound 228] |  | potently inhibited | 3.70 to 4.30 | 
46 | Cc1cc(O)c2c(c1)C(=O)c1cc(O)cc(O)c1C2=O [Compound 242, Emodin] |  | completely inhibited | 3.70 to 4.30 | inhibition of E. coli DNA gyrase activities [2]: potently inhibited
47 | O=C1OC2(c3ccccc31)c1cc(I)c(O)c(I)c1Oc1c2cc(I)c(O)c1I [Compound 253, Erythrosin B] |  | completely inhibited |  | pIC50 [2, 8]: > 5.00
48 | O=C1c2ccccc2C(=O)c2c1ccc(O)c2O [Compound 256, Alizarin] |  | completely inhibited |  | pIC50 [2, 6]: 4.30 to 4.60; pIC50 [2, 8]: > 5.00
